Converted amounts (≈) assume the structure as drawn. Starred links: 1 amine or outer side, 2 acyl side, 3 side chain; linkers in the order of their positions; H or OH if unused. Positions of bridges follow the written chain, without caps; N, C: chain ends. Non-standard residues stand in square brackets, D forms with d. Residues, ends and D or L forms follow the SMILES beside them. *: point of attachment. Decanoyl(3R-OH) = CCCCCCC[C@@H](O)CC(=O)*; azaDab = NCCN(N[*:1])C(=O)[*:2]; dDab = NCC[C@@H](N)C(=O)O; Orn = NCCC[C@H](N)C(=O)O; Dab = NCC[C@H](N)C(=O)O
Assays:
[1] = system: S. aureus ATCC 25923, MSSA; settings: ATCC 25923
Method in brief: (§1)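 Mid-log cultures grown in Mueller Hinton broth at 37° C were tested by 2-fold broth microdilution at 5×10^5 CFU/mL final. Compounds were dissolved in water and tested over a final range of 32 to 0.015 μg/mL.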

A. baumannii GN_093 PmxR = settings: GN 093 PmxR
Method in brief: as §1

[2] = system: P. aeruginosa GN_043, PmxR
Method in brief: as §1

E. coli ATCC 25922 = settings: ATCC 25922
Method in brief: as §1

[3] = system: K. pneumoniae GN_102 PmxR; settings: GN 102 PmxR
Method in brief: as §1

[4] = system: K. pneumoniae ATCC 700603, MDR; settings: ATCC 700603
Method in brief: as §1

[5] = system: K. pneumoniae ATCC BAA-2146, NDM-1 pos; settings: ATCC BAA-2146
Method in brief: as §1

[6] = system: K. pneumoniae GN_106, PmxR; settings: GN 106, PmxR
Method in brief: as §1

[7] = system: P. aeruginosa GN_105, PmxR; settings: GN 105, PmxR
Method in brief: as §1

P. aeruginosa ATCC 27853 = settings: ATCC 27853
Method in brief: as §1

K. pneumoniae ATCC 13883 = settings: ATCC 13883
Method in brief: as §1

A. baumannii ATCC 19606 = settings: ATCC 19606
Method in brief: as §1

[8] = In vitro nephrotoxicity, LDH release from primary human kidney cells; assay type: cell-based; settings: pH 7.4
From the text: (§2) hPT cells were derived from whole human kidneys procured by the International Institute for the Advancement of Medicine (Edison, N.J., USA). All tissue was scored by a pathologist as normal (i.e., derived from non-cancerous, non-diseased tissue). Cell isolation procedures were based on those originally described by Todd et al. (1996) and modified (Cummings and Lash, 2000; Cummings et al., 2000) with use of sterile conditions (i.e., all instruments and glassware were autoclaved and all buffers were filtered through a 0.2-μm pore-size filter). Renal cortex and outer stripe were cut into slices, washed with sterile PBS, minced, and the pieces were placed in a trypsinization flask filled with 300 ml of sterile, filtered Hanks' buffer, containing 25 mM NaHCO3, 25 mM HEPES, pH 7.4, 0.5 mM EGTA, 0.2% (w/v) bovine serum albumin, 50 μg/ml gentamicin, 1.3 mg/mL collagenase, and 0.59 mg/ml CaCl2), which was filtered prior to use. Whole kidneys were perfused with Wisconsin medium and kept on ice until they arrived at the laboratory, which was usually within 24 h of removal from the donor.
(§3) All buffers were continuously bubbled with 95% O2/5% CO2 and were maintained at 37° C. Minced cortical pieces from whole kidneys were subjected to collagenase digestion for 60 min, after which the supernatant was filtered through a 70-μm mesh filter to remove tissue fragments, centrifuged at 150×g for 7 min, and the pellet resuspended in Dulbecco's Modified Eagle's Medium: Ham's F12 Medium (DMEM/F12; 1/1). Approximately 5 to 7×10^6 cells were obtained per 1 g of human kidney cortical tissue.
(§4) hPT cells were resuspended in 2 mL of DMEM/F12 and diluted to 500 mL with cell culture medium, which was serum-free and hormonally-defined. Composition of this supplemented medium was based on earlier work establishing optimal conditions for primary culture of rat PT cells (Lash et al., 1995). Basal medium was a 1:1 mixture of DMEM/F12. […] Cells were seeded in a volume of 0.5 ml at a density of 50-100 μg protein per cm^2 (0.5-1.0×10^6 cells/ml) on 24-well plates. Cultures were grown at 37° C. in a humidified incubator under an atmosphere of 95% air/5% CO2 at pH 7.4. Cultures were grown to approximately 80%-90% confluence (generally 5-6 days) prior to experiments. Cells were harvested by either scraping the flasks with a Teflon scraper or by brief incubation with Cellstripper (Cellgro, Herndon, Va., USA) (in Ca^2+- and Mg^2+-free Hanks' buffer).

Neisseria gonorrhoeae = assay: MIC determination, Neisseria gonorrhoeae; assay type: cell-based; settings: strain FA19 ATCC BAA-1838
Method in brief: as §1

[9] = In vitro nephrotoxicity, GGT release from primary human kidney cells; assay type: cell-based; settings: pH 7.4
From the text: as §2, §3, §4
Release of gamm-glutanyltransferase was assessed according to Orlowski, M., Meister, A. 1963. γ-Glutamyl-p-nitroanilide: A new convenient substrate for determination and study of L- and D-γ-glutamyltranspeptidase activities (Biochim. Biophys. Acta 73: 679-681.)
A 2.5 mM substrate Solution was prepared from 67 mg γ-glutamyl-p-nitroanilide+264 mg glycylglycine in 100 mL of 0.05 M Tris, pH 8.2 (50 mM Tris, pH 8.2: 605 mg Tris/HCl per 100 mL).
For the assay in 96-well plates, 6-μL of sample and 0.3 mL substrate solution were added to each well. The absorbance was measured at 410 nm for the appearance of product, p-nitroanilide (molar extinction=8800 M^−1 cm^−1).

CCCCCCC[C@@H](O)CC(=O)NN(CCN)C(=O)N[C@H]1CCNC(=O)[C@H](CC(C)C)NC(=O)[C@H](CCN)NC(=O)[C@H](CCN)NC(=O)[C@H](CC(C)C)NC(=O)[C@@H](Cc2ccccc2)NC(=O)[C@H](CCN)NC1=O [compound 8639, 3(R)OH-nC9CO-azaDab-cyc[L-Dab-L-DAB-D-Phe-L-Leu-L-Dab-L-Dab-L-Leu]] ({Decanoyl(3R-OH)}-[azaDab][Dab][Dab][dF]L[Dab][Dab]L; lactam 2-C)
MIC S. aureus ATCC 25923, MSSA [1]: 8 µg/mL (≈ 7.65 µM) | MIC A. baumannii Cl Ptyela 10073 4512:2, PmxR (A. baumannii GN_093 PmxR): 8 µg/mL (≈ 7.65 µM) | MIC, P. aeruginosa FADDI-PA070, PmxR ([2]; strain name as in Table 11): 2 µg/mL (≈ 1.91 µM) | MIC E. coli ATCC 25922 (E. coli ATCC 25922): 2 µg/mL (≈ 1.91 µM) | MIC K. pneumoniae Cl Koprana 10065 0661:1 PmxR [3]: 2 µg/mL (≈ 1.91 µM) | MIC K. pneumoniae ATCC 700603, MDR [4]: 2 µg/mL (≈ 1.91 µM) | MIC K. pneumoniae ATCC BAA-2146, NDM-1 pos [5]: 4 µg/mL (≈ 3.83 µM) | MIC K. pneumoniae Cl 183-16357-20352, PmxR [6]: 2 µg/mL (≈ 1.91 µM) | MIC P. aeruginosa PA9704, PmxR [7]: 2 µg/mL (≈ 1.91 µM) | MIC P. aeruginosa ATCC 27853 (P. aeruginosa ATCC 27853): 2 µg/mL (≈ 1.91 µM) | MIC K. pneumoniae ATCC 13883 (K. pneumoniae ATCC 13883): 4 µg/mL (≈ 3.83 µM) | MIC A. baumannii ATCC 19606 (A. baumannii ATCC 19606): 4 µg/mL (≈ 3.83 µM) | CC50 [8]: > 128 µg/mL | MIC N. gonorrhoeae FA19 ATCC BAA-1838 (Neisseria gonorrhoeae): 0.78 µg/mL (≈ 0.746 µM) | CC50 [9]: > 128 µg/mL

CCCCCCC[C@@H](O)CC(=O)N[C@H](CCN)C(=O)N[C@H]1CCNC(=O)[C@H](CC(C)C)NC(=O)[C@H](CCCN)NC(=O)[C@H](CCN)NC(=O)[C@H](CC(C)C)NC(=O)[C@@H](Cc2ccccc2)NC(=O)[C@H](CCN)NC1=O [compound 988, 3(R)OH-nC9CO-D-Dab-cyc[L-Dab-L-Dab-D-Phe-L-Leu-L-Dab-L-Orn-L-Leu]] ({Decanoyl(3R-OH)}-[dDab][Dab][Dab][dF]L[Dab][Orn]L; lactam 2-C)
MIC S. aureus ATCC 25923, MSSA [1]: 16 µg/mL (≈ 15.1 µM) | MIC A. baumannii GN_093 PmxR (A. baumannii GN_093 PmxR): 8 µg/mL (≈ 7.56 µM) | MIC P. aeruginosa GN_043, PmxR ([2]; polymyxin-resistant): 2 µg/mL (≈ 1.89 µM) | MIC E. coli ATCC 25922 (E. coli ATCC 25922): 2 µg/mL (≈ 1.89 µM) | MIC K. pneumoniae GN_102 PmxR [3]: 2 µg/mL (≈ 1.89 µM) | MIC K. pneumoniae ATCC 700603, MDR [4]: 2 µg/mL (≈ 1.89 µM) | MIC K. pneumoniae ATCC BAA-2146, NDM-1 pos [5]: 2 µg/mL (≈ 1.89 µM) | MIC K. pneumoniae GN_106, PmxR [6]: 2 µg/mL (≈ 1.89 µM) | MIC P. aeruginosa GN_105, PmxR [7]: 2 µg/mL (≈ 1.89 µM) | MIC P. aeruginosa ATCC 27853 (P. aeruginosa ATCC 27853): 2 µg/mL (≈ 1.89 µM) | MIC K. pneumoniae ATCC 13883 (K. pneumoniae ATCC 13883): 2 µg/mL (≈ 1.89 µM) | MIC A. baumannii ATCC 19606 (A. baumannii ATCC 19606): 4 µg/mL (≈ 3.78 µM) | CC50 [8]: 118 µg/mL (≈ 111 µM) | MIC N. gonorrhoeae FA19 ATCC BAA-1838 (Neisseria gonorrhoeae): 0.78 µg/mL (≈ 0.737 µM) | CC50 [9]: > 128 µg/mL

— patent US11279733B2, “Peptide antibiotics” (priority 2017, dated 2022)
